Measured values as given in US7163946B2 (Ligand Pharmaceuticals Incorporated, priority 2002, dated 2007).
Where two headings read alike, the source gives them in different places.

What was measured:
[1] = target: T1, hPR (Homo sapiens, UniProt P06401)
T1 sequence (P06401 1-933): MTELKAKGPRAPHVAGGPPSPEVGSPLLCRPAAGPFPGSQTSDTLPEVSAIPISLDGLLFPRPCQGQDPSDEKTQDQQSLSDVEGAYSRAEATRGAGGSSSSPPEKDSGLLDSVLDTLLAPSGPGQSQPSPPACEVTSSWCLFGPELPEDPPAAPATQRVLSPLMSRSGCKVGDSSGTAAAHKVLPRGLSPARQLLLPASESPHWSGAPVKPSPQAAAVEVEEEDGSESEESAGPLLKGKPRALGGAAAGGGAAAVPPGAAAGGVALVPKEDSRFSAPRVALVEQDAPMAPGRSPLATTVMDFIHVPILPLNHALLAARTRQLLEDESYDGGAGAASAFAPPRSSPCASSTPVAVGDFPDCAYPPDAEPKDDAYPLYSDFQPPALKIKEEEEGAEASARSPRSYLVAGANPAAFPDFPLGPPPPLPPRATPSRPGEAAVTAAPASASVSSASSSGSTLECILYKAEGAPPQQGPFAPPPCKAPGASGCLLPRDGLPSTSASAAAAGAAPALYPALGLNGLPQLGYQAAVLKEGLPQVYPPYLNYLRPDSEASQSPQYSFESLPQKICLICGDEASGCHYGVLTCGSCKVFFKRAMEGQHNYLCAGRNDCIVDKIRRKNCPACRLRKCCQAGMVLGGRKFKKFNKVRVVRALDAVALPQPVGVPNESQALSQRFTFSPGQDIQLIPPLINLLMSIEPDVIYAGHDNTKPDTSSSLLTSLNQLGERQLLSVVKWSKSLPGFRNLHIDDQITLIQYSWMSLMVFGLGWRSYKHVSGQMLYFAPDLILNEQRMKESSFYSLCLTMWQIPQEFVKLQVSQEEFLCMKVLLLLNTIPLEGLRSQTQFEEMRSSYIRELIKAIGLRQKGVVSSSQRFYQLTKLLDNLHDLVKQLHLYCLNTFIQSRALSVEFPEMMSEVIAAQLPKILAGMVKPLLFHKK

[2] = test system: immature rabbits; assay: McPhail (Clauberg) rabbit assay of progestational activity; format: in vivo; conditions: Oryctolagus cuniculus; estradiol-primed immature rabbits; glandular changes of the uterus; read-out: potency (MAD in mg/kg), minimum active dose
Experimental: The superiority of the 7,9-difluoro analogue compounds of the present invention was further characterized utilizing the McPhail rabbit model according to the following illustrative Examples. The Clauberg or McPhail assay is a classic assay utilizing rabbits to measure progestational activity. […] In this assay, immature rabbits are treated initially with estradiol, which induces growth in the uterus. This is followed by a progestin, which causes a large change in the glandular content of the uterus. It is this change in the glandular component which is a measure of the progestational activity of a progestin. The measurement of these glandular changes is carried out histologically using stained sections of the uterus. The in vivo comparison between the new 7,9-difluoro compounds and analogues with substitution patterns different from 7,9-difluoro (U.S. Pat. Nos. 5,693,646 and 5,696,127) is tabulated in Tables 7 and 8. The in vivo potency of the progestins is presented as the minimum active dose (MAD).

[3] = test system: ovariectomized female rats; assay: Multi-endpoint adult rat model, uterus/breast tissue-selectivity; format: in vivo; conditions: ratio of relative efficacy to MPA in uterus verse in breast tissue at the same highest dose tested; estrone-treated ovariectomized rats, three days
Excerpt: In this assay, advantage is taken of the fact that in the uterus, estrogens induce a proliferation and increase in the epithelial cell height and uterine wet weight, which can be antagonized by progestins. In the breast, estrogens induce a proliferation of the ductal network while progestins stimulate the growth of the lobular-alveolar end buds, which grow from the distal end of the ducts. […] Proliferating cells or inhibition of proliferating cells were quantitated either by measurements of cell height in sectioned and stained tissue samples or, in the case of the breast, immuno-histochemically labeled Brdu incorporated nuclei.

[4] = target: T1, hPR; assay: hPR cotransfection assay in CV-1 cells, agonist mode; format: cell-based; conditions: CV-1 cells
Experimental: (§1) Antagonist efficacy was determined as a function (%) of maximal inhibition of a reference agonist at EC50 concentration. All the cotransfection experiments were carried out in 96-well plates by automation (Beckman Biomomek automated workstation).

[5] = target: T1, hPR; assay: hPR cotransfection assay in CV-1 cells, antagonist mode; format: cell-based; conditions: CV-1 cells
Experimental: as §1

[6] = target: T2, hPR-A (Homo sapiens, UniProt P06401); assay: Receptor competitive binding assay; conditions: read-out: PR binding Ki
T2 sequence (P06401 1-769 isoform P06401-2): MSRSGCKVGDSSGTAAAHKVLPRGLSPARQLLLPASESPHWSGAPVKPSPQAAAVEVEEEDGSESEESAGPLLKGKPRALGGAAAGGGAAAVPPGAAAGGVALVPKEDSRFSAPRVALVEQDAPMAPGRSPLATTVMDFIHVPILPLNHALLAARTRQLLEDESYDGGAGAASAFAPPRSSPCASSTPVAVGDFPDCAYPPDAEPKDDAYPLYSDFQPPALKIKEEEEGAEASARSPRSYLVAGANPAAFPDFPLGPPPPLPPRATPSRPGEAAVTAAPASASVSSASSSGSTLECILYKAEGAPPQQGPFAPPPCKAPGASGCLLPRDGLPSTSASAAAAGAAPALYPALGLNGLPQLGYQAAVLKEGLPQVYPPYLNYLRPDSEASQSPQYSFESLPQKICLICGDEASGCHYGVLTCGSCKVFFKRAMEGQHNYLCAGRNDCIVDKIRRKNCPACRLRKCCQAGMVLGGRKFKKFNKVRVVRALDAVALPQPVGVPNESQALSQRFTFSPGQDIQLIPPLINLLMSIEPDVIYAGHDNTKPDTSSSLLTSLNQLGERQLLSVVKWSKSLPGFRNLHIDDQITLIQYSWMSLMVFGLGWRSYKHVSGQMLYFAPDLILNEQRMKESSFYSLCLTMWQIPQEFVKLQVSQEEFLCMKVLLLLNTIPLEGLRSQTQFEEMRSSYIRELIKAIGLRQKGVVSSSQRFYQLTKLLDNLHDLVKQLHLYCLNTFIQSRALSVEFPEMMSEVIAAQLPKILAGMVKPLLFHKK

[7] = target: T3, hPR (Homo sapiens, UniProt P06401); assay: T47D alkaline phosphatase assay, agonist mode; format: cell-based; conditions: T47D human breast cancer cells
T3 sequence (P06401 679-933 limits assumed): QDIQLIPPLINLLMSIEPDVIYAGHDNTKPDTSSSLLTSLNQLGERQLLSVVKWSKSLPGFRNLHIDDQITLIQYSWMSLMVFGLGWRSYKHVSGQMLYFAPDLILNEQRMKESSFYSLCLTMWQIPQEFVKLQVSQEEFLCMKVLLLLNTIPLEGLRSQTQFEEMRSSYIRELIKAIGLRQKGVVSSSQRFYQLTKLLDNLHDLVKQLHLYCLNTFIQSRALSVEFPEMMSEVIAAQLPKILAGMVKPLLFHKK
Excerpt: The potential tissue-selectivities of the selected analogues were examined by using the T47D alkaline phosphatase assay that was developed from human breast cancer cells with endogenous PRs.

[8] = footnote a: EC50 data from U.S. Pat. Nos. 5693646/5693647/5696127; read-out: hPR agonist potencies (EC50 in nM) in the cotransfection assay; cited from earlier work
[9] = footnote b: EC50 data from J. Med. Chem. 41 (1998), 291 and 303; read-out: hPR agonist potencies (EC50 in nM) in the cotransfection assay; cited from earlier work

Compound	EC50 [1, 8] [nM]	EC50 [1, 9] [nM]	uterus/breast tissue-selectivity [3]	also measured
CC1=CC(C)(C)Nc2ccc3c(c21)C(c1cccc(F)c1)Oc1ccccc1-3 (centres unmarked) [Formula I X=H 3-F-Ph]	9			
CC1=CC(C)(C)Nc2ccc3c(c21)C(=Cc1ccccc1C)Oc1ccccc1-3 [Formula II X=H 2-Me-Ph]		5.7		
CC1=CC(C)(C)Nc2ccc3c(c21)C(=Cc1ccccc1C)Oc1ccc(F)cc1-3 [Formula II X=9-F 2-Me-Ph, reference compound]	4		2.3	minimal effective dose [2]: 1.2 mg/kg
CC1=CC(C)(C)Nc2ccc3c(c21)C(c1ccc(Cl)c(C)c1)Oc1c(F)cc(F)cc1-3 (single isomer, unassigned; (-)) [Compound 38, (−)-7,9-difluoro-5-(4-chloro-3-methylphenyl)-1,2-dihydro-2,2,4-trimethyl-5H-chromeno[3,4-f]quinoline]			2.8	minimal effective dose [2]: 0.25 mg/kg; EC50 ([4]; read-out: hPR Agonist CV-1 Cells EC50): 1.2 nM; hPR Agonist CV-1 Cells Eff. (%) ([4]; relative to maximal response of progesterone as 100%): 110%; IC50 [5]: > 10000 nM; hPR Antagonist CV-1 Cells Eff. (%) ([5]; maximal inhibition of reference agonist at EC50 concentration): na (na = not active (i.e. efficacy of <20 and potency of >10,000)); Ki [6]: 2 nM; EC50 [7]: 6.2 nM; hPR Agonist T47D cells Eff. (%) [7]: 54%
CC1=CC(C)(C)Nc2ccc3c(c21)C(=Cc1cc(F)ccc1F)Oc1ccccc1-3 [Formula II X=H 2,5-diF-Ph]		14.7		
CC1=CC(C)(C)Nc2ccc3c(c21)C(=Cc1ccccc1Cl)Oc1ccccc1-3 [Formula II X=H 2-Cl-Ph]		57.8		
CC1=CC(C)(C)Nc2ccc3c(c21)C(=Cc1cccc(F)c1)Oc1ccccc1-3 [Formula II X=H 3-F-Ph, reference compound]			0.69	EC50 ([1]; read-out: hPR agonist potencies (EC50 in nM) in the cotransfection assay; footnote b: EC50 data from J. Med. Chem. 41 (1998), 291 and 303; cited from earlier work): 7.6 nM
CC1=CC(C)(C)Nc2ccc3c(c21)C(=Cc1ccccc1)Oc1ccccc1-3 [Formula II X=H Phenyl]	33			
CC1=CC(C)(C)Nc2ccc3c(c21)C(=Cc1ccccc1F)Oc1ccccc1-3 [Formula II X=H 2-F-Ph]		29		
CC1=CC(C)(C)Nc2ccc3c(c21)C(c1ccccc1)Oc1ccccc1-3 (centres unmarked) [Formula I X=H Ph, reference compound]	203		0.78	
CC1=CC(C)(C)Nc2ccc3c(c21)C(=Cc1ccc(F)cc1)Oc1ccccc1-3 [Formula II X=H 4-F-Ph]		59.5		
